From patent US9931335B2, “Desethylhydroxychloroquine for the treatment of diseases associated with inflammation” (The Board of Trustees of the Leland Stanford Junior …, priority 2013, dated 2018)
“Also recorded” adds a separate entry of the source.

Legend:
[1] = tested on: DMM-induced OA in C57BL6 (B6) mice; assay: Destabilization of the medial meniscus (DMM) mouse model of osteoarthritis; format: in vivo; conditions: 3 months, vs vehicle; for Cartilage Degeneration Score (OA score): aminoquinolines 100 mg/kg/day, atorvastatin 40 mg/kg/day, oral gavage from 1 week after DMM, two-tailed T test
Protocol: One week following surgical induction, treatment was initiated with vehicle control, hydroxychloroquine (HCQ), or desethylhydroxychloroquine (DHCQ) dosed at 100 mg/kg/day by oral gavage (once per day). After 3 months, mice were sacrificed, joints harvested, joint sections cut, and tissue sections stained with safranin-O. An examiner blinded to treatment used microscopy to score the severity of OA. The “Cartilage Degeneration Score” (also known as the “OA score”, “Severity Score” and “Histology Score”) was determined by a blinded examiner, and the two-tailed T test used to determine if there were statistical differences in the Cartilage Degeneration Scores between groups.
The histologic sections generated at the termination of the mouse OA experiment presented above and in FIG. 5 were subject to blinded scoring for the “Osteophyte Score” (measure of the amount of osteophyte or ectopic bone formation) and “Synovitis Score” (measure of the amount of synovial and joint inflammation). The scores between groups were compared by two-tailed T test.
Experiments were performed under protocols approved by the Stanford University Committee of Animal Research and in accordance with NIH guidelines. Murine OA was generated by surgically by destabilization of the DMM (Glasson, S., S., et al., Osteoarthritis Cartilage, 15: 1061-1069 (2007)).
Mice were euthanized 3 months after surgery. Their stifle joints were decalcified in EDTA solution, fixed in 4% paraformaldehyde, and embedded in paraffin. Serial 4 micron sections were cut and stained with toluidine blue. Scoring of arthritis in these histology sections was done according to a modified version of previously described composite scoring systems (Kamekura, S., et al. Osteoarthritis Cartilage 13: 632-641 (2005); Bendele, A. M., J Musculoskelet Neuronal Interact., 1: 363-376 (2001)). The “OA Score” was calculated as follows: cartilage degeneration (0-4) was multiplied by the width (1=1/3, 2=2/3, and 3=3/3 of surface area) of each third of the femoral-medial and tibial-medial condyles, and the scores for the 6 regions were summed. To evaluate osteophyte (ectopic bone) formation, we scored toluidine-blue-stained sections according to a previously described scoring system (Kamekura, S., et al. Osteoarthritis development in novel experimental mouse models induced by knee joint instability. Osteoarthritis Cartilage 13, 632-641 (2005)): 0, none; 1, formation of cartilage-like tissues; 2, increase of cartilaginous matrix; 3, endochondral ossification. To evaluate synovitis, we scored H&E-stained sections according to a previously described scoring system (Blom, A. B., et al. Synovial lining macrophages mediate osteophyte formation during experimental osteoarthritis. Osteoarthritis Cartilage 12, 627-635 (2004)): 0, no changes compared to normal joints; 1, thickening of the synovial lining and some influx of inflammatory cells; 2, thickening of the synovial lining and intermediate influx of inflammatory cells; and 3, profound thickening of the synovial lining (more than four cell layers) and maximal observed influx of inflammatory cells. Scores for osteophyte formation and synovitis were recorded for the femoral-medial and the tibial-medial condyles on the operated side of the joint, and the scores for the two regions were summed and statistical comparisons performed using a two-tailed T test.
Treatment was started 1 week after surgical induction of destabilization of the medial meniscus (DMM), a time point at which mice were at increased risk for the development of OA.

[2] = tested on: established high-fat diet-induced NASH in C57BL/6 mice; assay: High fat diet-induced NASH in mice, treatment of established disease; format: in vivo, mouse; conditions: 6 weeks; for steatosis percentage of whole area (liver histology): 10 mg/kg/day started after 2 weeks of high-fat diet; for steatosis percentage of whole area (liver histology) / serum ALT / serum AST: vs vehicle
Protocol: To evaluate the effect of DHCQ and HCQ on established NASH, C57BL/6 mice (8 per group) were fed a high-fat “western-style” diet (60% caloric content from fat; Taconic). Following initiation of the high-fat diet, after 2 weeks blood was drawn and analyzed for abnormal elevations in serum markers for NASH including AST and ALT. The AST and ALT became abnormally elevated following the initial 2 weeks of high-fat diet, and at that time treatment was initiated with HCQ (10 mg/kg/day), DHCQ (10 mg/kg/day), or vehicle control. After 6 weeks of treatment, mice were fasted and blood was collected for serum analysis and mice sacrificed for histologic analysis of liver pathology. FIG. 8A presents micrographs of representative liver tissue sections at both 10× and 20× magnification. […] AST and ALT levels in the collected serum were measured and 2-tailed T Tests used to compare levels between groups.

[3] = tested on: diet-induced obesity in C57BL/6 mice; assay: Mouse diet-induced obesity: type II diabetes, hyperlipidemia and metabolic syndrome; format: in vivo; conditions: 10 mg/kg/day, 6 weeks; for total cholesterol / triglycerides / blood glucose: vs vehicle; for blood glucose: two-tailed T test
Protocol: To evaluate treatment with DHCQ and HCQ on a mouse model of diet-induced type II diabetes, hyperlipidemia and metabolic syndrome, C57BL/6 mice (8 per group) were fed a high-fat “western-style” diet (60% caloric content from fat; Taconic). In an analogous fashion to that in Example 6, two weeks following initiation of the high-fat diet groups of mice were initiated on treatment with vehicle control, HCQ (10 mg/kg/day) or the HCQ metabolites DHCQ (10 mg/kg/day), DCQ (10 mg/kg/day), or BDCQ (10 mg/kg/day). After 6 weeks of treatment, blood was collected for analysis of glucose, triglyceride, and cholesterol levels.

[4] = tested on: ganglion cell layer (GCL) of the retina; assay: Retinal histology of mice dosed for 3 months; format: in vivo, mouse; conditions: for number of cells (nuclei) in the GCL vs vehicle / nuclear shrinkage in the ganglion cell layer (GCL): 100 mg/kg/day, 3 months; for nuclear shrinkage in the ganglion cell layer (GCL): H&E
Text: At the time of termination, the eyes from each treatment group were carefully microdissected to ensure the retina remained intact, the eye was fixed in formalin, and the fixed eye sectioned to visualize the retina. […] Representative images of H&E stained retinal sections are presented from each treatment group in FIG. 17.
Using the histologic and quantitative pathology methodology adapted from Shichiri, et al (Shichiri, et al, JBC. 2012, 287(4):2926-34. PMID 22147702), the H&E stained retinal sections were evaluated for number of nuclei in the ganglion cell layer (GCL) (FIG. 18). The graph presents quantitation of the number of nuclei in the GCL of the retina from the indicated treatment groups. The number of cells in the GCL of the retina for each treatment group was compared with the number of cells in vehicle-treated control by two-tailed T test.

CC(CCCNCCO)Nc1ccnc2cc(Cl)ccc12 (stereo not drawn) [DHCQ, desethylhydroxychloroquine]
Osteophyte Score ([1]; 100 mg/kg/day oral gavage): statistically prevented and reduced; also recorded: statistically significant protection against the development of synovitis and osteophytes
Cartilage Degeneration Score (OA score) [1]: statistically prevented and reduced the severity of OA; also recorded: statistically prevented and reduced the severity of cartilage degeneration
Synovitis Score ([1]; oral gavage): statistically prevented and reduced; also recorded: statistically significant protection against the development of synovitis and osteophytes
steatosis percentage of whole area (liver histology) [2]: statistically reduced the steatosis percentage
AST and ALT compared to treatment with HCQ ([2]; 10 mg/kg/day): statistical reductions in the AST and ALT as compared to treatment with HCQ
serum ALT ([2]; 10 mg/kg/day): statistically reduced abnormal elevations
serum AST ([2]; 10 mg/kg/day): statistically reduced abnormal elevations
treatment of diet-induced metabolic disease compared to HCQ, DCQ and BDCQ [3]: statistically more effectively than HCQ, DCQ and BDCQ
total cholesterol [3]: statistical reductions in total cholesterol
triglycerides [3]: statistical reductions
blood glucose [3]: statistical reduction in blood glucose levels
number of cells (nuclei) in the GCL vs vehicle [4]: no reduction in the number of cells in the GCL
nuclear shrinkage in the ganglion cell layer (GCL) [4]: No increase in nuclear shrinkage in the GCL

CCN(CCO)CCCC(C)Nc1ccnc2cc(Cl)ccc12 (stereo not drawn) [HCQ, hydroxychloroquine]
Cartilage Degeneration Score (OA score) [1]: only resulted in trends towards improvement; also recorded: did not result in a statistically significant reduction in the severity of OA
Cartilage Degeneration Score (OA score) ([1]; listed as Hydroxychloroquine): did not result in a statistically signification prevention or reduction in OA severity
steatosis percentage of whole area (liver histology) [2]: statistically reduced the steatosis percentage
serum ALT ([2]; 10 mg/kg/day): only exhibited a trend towards reduction
serum AST ([2]; 10 mg/kg/day): only exhibited a trend towards reduction
total cholesterol [3]: did not result in statistical reductions
triglycerides [3]: did not result in statistical reductions
blood glucose [3]: did not result in statistical reductions in blood glucose
number of cells (nuclei) in the GCL vs vehicle [4]: significantly lower
nuclear shrinkage in the ganglion cell layer (GCL) [4]: increased nuclear shrinkage in the GCL
retinal cell loss in GCL, HCQ compared to DHCQ ([4]; P<0.05): statistically increased retinal cell loss
